This note sets out measurements from ChEMBL document CHEMBL6182920, “The Discovery of C7-Substituted Norbornyl Bisamides as RXFP1 Small Molecule Agonists” (J Med Chem, 2025).

In one data set the target is Cytochrome P450 3A4 (Homo sapiens, UniProt P08684). The data set can be described thus: Inhibition of CYP3A4 (unknown origin).
Data set [1] can be described thus: Microsomal stability in mouse liver microsomes assessed as half life. The format is ADME, Microsome.
A further data set has as its target Cytochrome P450 2C9 (Homo sapiens, UniProt P11712). The data set can be described thus: Inhibition of CYP2C9 (unknown origin).
Data set [2] addresses T1, Relaxin receptor 1 (Rattus norvegicus, UniProt Q6R6I6).
T1 sequence (Q6R6I6 whole entry): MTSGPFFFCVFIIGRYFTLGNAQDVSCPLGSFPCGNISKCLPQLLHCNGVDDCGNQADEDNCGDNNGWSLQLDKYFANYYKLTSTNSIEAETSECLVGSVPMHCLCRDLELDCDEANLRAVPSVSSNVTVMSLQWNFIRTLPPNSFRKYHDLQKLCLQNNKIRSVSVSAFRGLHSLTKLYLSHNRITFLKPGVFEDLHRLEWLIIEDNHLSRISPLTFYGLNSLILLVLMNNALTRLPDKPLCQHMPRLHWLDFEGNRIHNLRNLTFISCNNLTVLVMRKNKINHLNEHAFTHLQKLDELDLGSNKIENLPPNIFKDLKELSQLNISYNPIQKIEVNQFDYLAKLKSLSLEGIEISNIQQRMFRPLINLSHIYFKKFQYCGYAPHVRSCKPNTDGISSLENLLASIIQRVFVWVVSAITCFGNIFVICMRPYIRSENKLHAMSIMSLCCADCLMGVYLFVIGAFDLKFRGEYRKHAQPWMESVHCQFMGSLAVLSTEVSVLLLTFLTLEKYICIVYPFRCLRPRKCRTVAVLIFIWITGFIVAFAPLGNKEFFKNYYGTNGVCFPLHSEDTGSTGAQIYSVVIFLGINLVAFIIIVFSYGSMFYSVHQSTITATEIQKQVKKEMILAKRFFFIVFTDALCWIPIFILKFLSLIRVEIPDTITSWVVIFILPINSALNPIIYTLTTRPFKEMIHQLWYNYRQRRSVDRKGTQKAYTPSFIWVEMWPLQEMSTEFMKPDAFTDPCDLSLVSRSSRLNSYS
The data set is described as follows: Agonist activity at rat RXFP1 stably expressed in HEK293 cells assessed as intracellular cAMP accumulation incubated for 30 mins by HTRF assay. In kind it is cell-based. A general note: Changes in cAMP serve as a functional read-out for many G protein-coupled receptors.

The nature of data set [3]: Total AUC in Sprague-Dawley rat at 1 mg/kg, iv. In kind it is ADME, organism-based. To be noted: in vivo.
For another data set, the system named is Rattus norvegicus. The data set can be described thus: Chronotropic effect in isoflurane-anesthetized male naive Sprague-Dawley rat model assessed as increase in heart rate at 5 mg/kg/min, iv measured after 60 mins. In kind it is functional. As to conditions: 1 h.
Another data set deals with hERG (Homo sapiens, UniProt Q12809). The data set can be described thus: Inhibition of hERG (unknown origin) at 30 uM by patch clamp assay relative to control. (Block of hERG is tested as a sign of cardiac risk.)
Data set [4] can be described thus: Clearance in Sprague-Dawley rat at 1 mg/kg, iv. The format is ADME, organism-based. As to conditions: in vivo.
A short description of data set [5]: Thermodynamic aqueous solubility of compound in phosphate buffer at pH 7.4 by reversed-phase ultrahigh pressure liquid chromatography. The format is physicochemical. As to conditions: phosphate buffer, read-out: Therm_solubility.
The nature of data set [6]: Volume of distribution at steady state in Sprague-Dawley rat at 1 mg/kg, iv. In kind it is ADME, organism-based. As to conditions: in vivo, read-out: Vdss.
The target in another data set is Cytochrome P450 2D6 (Homo sapiens, UniProt P10635). The data set is described as follows: Inhibition of CYP2D6 (unknown origin).
Another data set deals with Mus musculus. The data set can be described thus: Expansion of interpubic ligament in estrogen-treated female C57BL/6 mouse assessed as symphysis widening at 25 mg/kg, iv administered on day 7 and measured on day 8 by microCT analysis (reference value: 17.6 %). The format is functional. To be noted: time 1 day.
The target in another data set is L-type calcium channel (Homo sapiens, UniProt O60840+Q01668+Q13698+Q13936). The data set is described as follows: Inhibition of L-type calcium channel (unknown origin) at 10 uM by patch clamp assay relative to control. Background: Patch clamp records ionic current or voltage across a cell membrane.
The next data set addresses Cytochrome P450 2C19 (Homo sapiens, UniProt P33261). The data set is described as follows: Inhibition of CYP2C19 (unknown origin).
In data set [7] the target is T2, Relaxin receptor 1 (Homo sapiens, UniProt Q9HBX9).
T2 sequence (Q9HBX9 whole entry): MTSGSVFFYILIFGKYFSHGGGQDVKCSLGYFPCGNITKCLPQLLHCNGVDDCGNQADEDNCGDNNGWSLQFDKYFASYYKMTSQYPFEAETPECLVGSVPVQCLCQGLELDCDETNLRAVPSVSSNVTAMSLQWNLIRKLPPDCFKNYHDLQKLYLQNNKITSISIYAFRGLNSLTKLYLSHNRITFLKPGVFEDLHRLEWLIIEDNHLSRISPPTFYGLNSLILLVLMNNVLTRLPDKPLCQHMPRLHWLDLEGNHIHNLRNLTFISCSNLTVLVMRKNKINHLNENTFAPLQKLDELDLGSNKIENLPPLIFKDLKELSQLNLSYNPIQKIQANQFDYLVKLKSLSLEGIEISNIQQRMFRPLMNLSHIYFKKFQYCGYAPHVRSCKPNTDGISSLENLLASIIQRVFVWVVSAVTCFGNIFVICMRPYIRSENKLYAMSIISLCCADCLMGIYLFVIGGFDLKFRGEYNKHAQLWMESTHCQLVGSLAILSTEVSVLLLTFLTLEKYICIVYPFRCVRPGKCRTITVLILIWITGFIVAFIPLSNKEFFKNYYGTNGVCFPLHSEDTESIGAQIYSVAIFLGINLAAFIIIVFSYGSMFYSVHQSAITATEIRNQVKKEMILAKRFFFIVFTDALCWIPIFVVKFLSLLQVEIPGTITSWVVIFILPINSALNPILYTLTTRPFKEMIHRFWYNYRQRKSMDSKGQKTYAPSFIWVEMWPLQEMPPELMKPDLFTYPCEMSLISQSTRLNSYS
The data set can be described thus: Agonist activity at human RXFP1 stably expressed in HEK293 cells assessed as intracellular cAMP accumulation incubated for 30 mins by HTRF assay.

A further data set has as its target T3, Cytochrome P450 1A2 (Homo sapiens, UniProt P05177).
T3 sequence (P05177 whole entry): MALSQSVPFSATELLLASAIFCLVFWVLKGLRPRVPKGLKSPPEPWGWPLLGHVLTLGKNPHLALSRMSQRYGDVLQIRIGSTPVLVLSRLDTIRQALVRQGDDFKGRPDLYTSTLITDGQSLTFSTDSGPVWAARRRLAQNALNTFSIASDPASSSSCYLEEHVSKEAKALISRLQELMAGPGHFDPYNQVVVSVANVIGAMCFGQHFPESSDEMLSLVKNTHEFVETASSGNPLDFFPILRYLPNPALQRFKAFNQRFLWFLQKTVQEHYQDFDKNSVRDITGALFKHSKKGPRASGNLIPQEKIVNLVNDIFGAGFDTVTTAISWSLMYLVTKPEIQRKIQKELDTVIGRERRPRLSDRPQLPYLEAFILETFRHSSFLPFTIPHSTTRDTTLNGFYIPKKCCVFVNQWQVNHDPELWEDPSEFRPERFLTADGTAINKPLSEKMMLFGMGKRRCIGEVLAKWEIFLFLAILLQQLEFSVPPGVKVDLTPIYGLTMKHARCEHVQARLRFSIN
The data set can be described thus: Inhibition of CYP1A2 (unknown origin).

Structures are written as SMILES. In brackets after ≈: the same amount, converted by molar mass.

Chain of Cytochrome P450 2C19 (P33261 whole entry): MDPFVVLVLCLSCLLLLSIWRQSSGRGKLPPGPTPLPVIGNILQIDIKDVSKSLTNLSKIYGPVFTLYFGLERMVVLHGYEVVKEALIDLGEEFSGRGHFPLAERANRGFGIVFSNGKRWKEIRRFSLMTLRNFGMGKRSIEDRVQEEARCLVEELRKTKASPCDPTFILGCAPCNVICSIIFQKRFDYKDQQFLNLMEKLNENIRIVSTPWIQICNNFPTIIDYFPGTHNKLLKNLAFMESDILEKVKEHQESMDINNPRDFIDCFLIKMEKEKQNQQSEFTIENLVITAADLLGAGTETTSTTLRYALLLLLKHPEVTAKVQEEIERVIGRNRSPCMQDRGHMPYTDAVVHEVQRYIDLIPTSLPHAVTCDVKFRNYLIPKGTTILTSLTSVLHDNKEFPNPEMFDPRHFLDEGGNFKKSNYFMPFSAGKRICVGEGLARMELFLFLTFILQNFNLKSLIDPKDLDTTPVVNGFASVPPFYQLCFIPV
Chain of Cytochrome P450 2C9 (P11712 whole entry): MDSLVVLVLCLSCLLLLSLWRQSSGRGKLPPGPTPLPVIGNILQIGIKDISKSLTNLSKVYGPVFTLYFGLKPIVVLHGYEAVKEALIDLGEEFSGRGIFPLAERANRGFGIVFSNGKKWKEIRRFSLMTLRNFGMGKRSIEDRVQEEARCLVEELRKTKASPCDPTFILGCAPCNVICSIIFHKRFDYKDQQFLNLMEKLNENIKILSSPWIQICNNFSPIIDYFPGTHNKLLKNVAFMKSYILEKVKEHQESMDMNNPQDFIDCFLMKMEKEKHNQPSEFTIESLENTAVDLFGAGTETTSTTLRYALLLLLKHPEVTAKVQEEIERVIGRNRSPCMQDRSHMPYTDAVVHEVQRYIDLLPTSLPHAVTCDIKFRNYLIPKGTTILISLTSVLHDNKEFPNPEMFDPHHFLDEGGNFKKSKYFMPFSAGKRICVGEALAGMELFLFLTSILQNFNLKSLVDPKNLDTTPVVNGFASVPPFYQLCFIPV
Chain of hERG (Q12809 whole entry): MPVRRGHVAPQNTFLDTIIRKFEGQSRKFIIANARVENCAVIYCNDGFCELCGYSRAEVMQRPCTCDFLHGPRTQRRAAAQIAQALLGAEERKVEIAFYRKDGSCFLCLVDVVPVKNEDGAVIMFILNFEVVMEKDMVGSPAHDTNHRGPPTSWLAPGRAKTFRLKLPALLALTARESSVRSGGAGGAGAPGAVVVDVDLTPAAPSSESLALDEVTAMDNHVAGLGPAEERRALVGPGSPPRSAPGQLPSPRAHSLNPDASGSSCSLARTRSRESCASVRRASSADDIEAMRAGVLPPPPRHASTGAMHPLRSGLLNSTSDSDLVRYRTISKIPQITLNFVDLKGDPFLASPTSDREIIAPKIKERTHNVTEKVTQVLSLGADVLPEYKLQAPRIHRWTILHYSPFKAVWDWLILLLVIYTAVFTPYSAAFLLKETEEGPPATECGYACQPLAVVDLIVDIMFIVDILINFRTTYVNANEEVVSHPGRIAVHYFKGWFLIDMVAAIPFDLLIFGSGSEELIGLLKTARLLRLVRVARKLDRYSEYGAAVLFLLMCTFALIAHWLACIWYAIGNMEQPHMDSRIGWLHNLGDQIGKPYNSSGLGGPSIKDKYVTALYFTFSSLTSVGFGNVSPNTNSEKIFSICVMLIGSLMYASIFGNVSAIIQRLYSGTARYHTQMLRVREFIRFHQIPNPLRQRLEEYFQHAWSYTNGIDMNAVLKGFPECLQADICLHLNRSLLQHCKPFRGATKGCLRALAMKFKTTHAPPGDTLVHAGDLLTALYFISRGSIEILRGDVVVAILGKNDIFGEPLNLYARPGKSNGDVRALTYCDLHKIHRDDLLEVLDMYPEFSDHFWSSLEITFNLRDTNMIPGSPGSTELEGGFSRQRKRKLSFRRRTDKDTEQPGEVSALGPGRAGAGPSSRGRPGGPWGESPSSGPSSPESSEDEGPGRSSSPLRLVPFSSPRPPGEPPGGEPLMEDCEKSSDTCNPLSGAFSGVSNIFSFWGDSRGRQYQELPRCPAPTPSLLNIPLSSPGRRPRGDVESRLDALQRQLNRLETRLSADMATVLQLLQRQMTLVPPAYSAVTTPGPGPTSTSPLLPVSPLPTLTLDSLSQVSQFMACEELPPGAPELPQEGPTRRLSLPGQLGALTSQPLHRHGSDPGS
Chain of Cytochrome P450 3A4 (P08684 whole entry): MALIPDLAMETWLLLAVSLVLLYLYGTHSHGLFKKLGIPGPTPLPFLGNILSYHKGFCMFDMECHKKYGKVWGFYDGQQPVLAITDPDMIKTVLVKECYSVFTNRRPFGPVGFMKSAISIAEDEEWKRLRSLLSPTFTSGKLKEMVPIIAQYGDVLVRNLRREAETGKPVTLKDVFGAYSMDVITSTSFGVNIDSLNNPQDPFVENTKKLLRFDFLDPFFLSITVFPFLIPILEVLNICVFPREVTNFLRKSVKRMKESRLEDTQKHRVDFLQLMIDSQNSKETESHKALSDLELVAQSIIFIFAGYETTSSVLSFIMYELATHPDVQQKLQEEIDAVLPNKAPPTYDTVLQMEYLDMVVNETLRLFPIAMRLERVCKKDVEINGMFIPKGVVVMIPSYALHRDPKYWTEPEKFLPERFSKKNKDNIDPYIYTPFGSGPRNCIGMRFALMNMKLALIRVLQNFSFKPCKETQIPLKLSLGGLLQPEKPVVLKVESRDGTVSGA
Chain of Cytochrome P450 2D6 (P10635 whole entry): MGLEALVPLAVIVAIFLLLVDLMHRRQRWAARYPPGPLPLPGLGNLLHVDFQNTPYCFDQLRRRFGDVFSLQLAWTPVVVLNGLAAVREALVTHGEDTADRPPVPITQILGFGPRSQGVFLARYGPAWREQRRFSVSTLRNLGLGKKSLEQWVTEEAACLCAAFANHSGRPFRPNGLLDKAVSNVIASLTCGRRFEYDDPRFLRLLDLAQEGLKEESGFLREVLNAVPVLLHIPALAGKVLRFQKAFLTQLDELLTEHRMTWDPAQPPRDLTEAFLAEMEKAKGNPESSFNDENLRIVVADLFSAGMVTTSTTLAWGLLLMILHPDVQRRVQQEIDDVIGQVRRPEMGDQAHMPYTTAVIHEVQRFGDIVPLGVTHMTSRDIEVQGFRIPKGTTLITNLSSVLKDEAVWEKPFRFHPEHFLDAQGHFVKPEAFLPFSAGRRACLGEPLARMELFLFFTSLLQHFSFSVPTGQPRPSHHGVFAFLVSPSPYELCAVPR

As a reminder, the IC50 is the concentration at which inhibition is half-maximal. Low values mean inhibition by little substance, high ones a need for much substance. A word on the half-life: it is how long it takes for the measured level to halve. As usually defined, the EC50 is the concentration that produces a half-maximal response. By AUC is commonly meant the area under the concentration-time curve, a measure of exposure. Read a high AUC as more exposure. As a reminder, the inhibition is the share of the control response that was lost under treatment. For orientation: clearance means a measure of how efficiently the substance is removed, as volume per time. A higher clearance goes with efficient removal. Consider `CNC(=O)OC(C(=O)O)c1ccc(F)c(-c2ccc(OC)c(C(=O)N[C@H]3[C@@H](C(=O)Nc4ccc(F)c(C(F)(F)F)c4)[C@H]4CC[C@@H]3/C4=C\C3CC3)c2)c1` (stereo in doubt; 39), for which the IC50 against Cytochrome P450 3A4 was > 20 µM; against Cytochrome P450 2C9 it was 4 µM; against Cytochrome P450 2D6 it was > 20 µM; at Cytochrome P450 2C19, 17 µM; at Cytochrome P450 1A2 it was 4.6 µM. The half-life in [1] was > 2 h. In addition, the EC50 on Relaxin receptor 1 [2] was determined as 0.045 µM; on Relaxin receptor 1 [7] it was 0.002 µM. Besides, in data set [3], the AUC was 9.6 µM·h. Besides, the Activity in the data set with Rattus norvegicus worked out at 25%; with Mus musculus it was 500.4%. For the same compound, the inhibition at 30 µM against hERG turned out to be 7%. Moreover, the clearance in data set [4] is 2.5 mL/min/kg. In addition, the solubility thermodynamic in data set [5] was found to be 130 µg/mL (≈ 179 µM). In data set [6], the Vd was 0.09 L/kg. The inhibition at 10 µM on L-type calcium channel came out at 33%.
